Experimental findings from patent publication US20170305943A1, “COMPOUNDS FOR THE TREATMENT OF BACTERIAL INFECTIONS” (priority 2014, published 2017) are described below.

Values after ≈ are worked out from the molar mass of the structure shown.

Assay in all cases: Bacterial Assay: Determination of Antibacterial Activity (MIC, broth microdilution or agar dilution)
What all share (format): cell-based
Background: In broth dilution the organism is exposed to a series of concentrations in liquid medium.

The test system of experiment [1] is Clostridium difficile (Isolate ID 027-01). Particulars: Clostridioides difficile, 48 h, read-out: MIC (μg/mL) C. difficile (027-01). Summed up:
(§1)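 MICs were set by CLSI broth microdilution or agar dilution for anaerobes, read visually after 48 hours at 37° C. under anaerobic gas packs. Medium was reinforced clostridial medium with 0.1% defibrinated horse blood; values are binned as A ≦1.01, B >1.0-4.0, C >4.0-16 μg/mL.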

Experiment [2] concerns Clostridium difficile (Isolate ID ATCC 9689). Particulars: Clostridioides difficile, ATCC9689, 48 h, read-out: C. difficile MIC Activity Range. In outline:
as §1

Experiment [3] concerns Clostridium difficile (Isolate ID BI-9). Particulars: Clostridioides difficile, 48 h, read-out: MIC (μg/mL) C. difficile (B-I9). In outline:
as §1

On to `NC(=O)c1c(F)ccc(OCCCCCCOc2ccc(OC(F)(F)F)cc2)c1F` [Compound 134, 2,6-difluoro-3-({6-[4 (trifluoromethoxy)phenoxy]hexyl}oxy) benzamide], for which the MIC was 0.25 µg/mL (≈ 0.577 µM) in experiment [1], less than 1.01 µg/mL in experiment [2] and 0.25 µg/mL (≈ 0.577 µM) in experiment [3].
For the molecule `NC(=O)c1c(F)ccc(OCCCCCCOc2ccc(C(F)(F)F)cc2)c1F` [Compound 135, 2,6-difluoro-3-({6-[4-(trifluoromethyl)phenoxy]hexyl}oxy)benzamide], the MIC is 0.5 µg/mL (≈ 1.2 µM) in experiment [1], less than 1.01 µg/mL in experiment [2] and 0.5 µg/mL (≈ 1.2 µM) in experiment [3].
Consider `NC(=O)c1c(F)ccc(OCCOCCOc2ccc(Cl)cc2)c1F` [Compound 136, 3-{2-[2-(4-chlorophenoxy)ethoxy]ethoxy}-2,6-difluorobenzamide], for which the MIC in experiment [1] is 4 µg/mL (≈ 10.8 µM); in experiment [2], 1 to 4 µg/mL (≈ 2.69 to 10.8 µM); in experiment [3], 4 µg/mL (≈ 10.8 µM).
Take `CN(CCCCOc1ccc(OC(F)(F)F)cc1)c1ccc(F)c(C(N)=O)c1F` [Compound 152, 2,6-difluoro-3-(methyl{4-[4-(trifluoromethoxy)phenoxy]butyl}amino) benzamide]: the MIC in experiment [1] was 0.5 µg/mL (≈ 1.2 µM); in experiment [2], less than 1.01 µg/mL; in experiment [3], 0.5 µg/mL (≈ 1.2 µM).
Regarding `NC(=O)c1c(F)ccc(OCCCCCc2ccc(C(F)(F)F)cc2)c1F` [Compound 155, 2,6-difluoro-3-({5-[4-(trifluoromethyl)phenyl]pentyl}oxy)benzamide], the MIC is 0.12 µg/mL (≈ 0.31 µM) in experiment [1], less than 1.01 µg/mL in experiment [2] and 0.12 µg/mL (≈ 0.31 µM) in experiment [3].
For `NC(=O)c1c(F)ccc(OCCCCOc2ccc(S(F)(F)(F)(F)F)cc2)c1F` [Compound 159], the MIC in experiment [1] is 0.12 µg/mL (≈ 0.268 µM); in experiment [2], less than 1.01 µg/mL; in experiment [3] it was 0.12 µg/mL (≈ 0.268 µM).
For `NC(=O)c1c(F)ccc(OCC#CCOc2ccc(OC(F)(F)F)cc2)c1F` [Compound 160, 2,6-difluoro-3-({4-[4-(trifluoromethoxy)phenoxy]but-2-yn-1-yl}oxy)benzamide], the values for the MIC in experiment [1], in experiment [2] and in experiment [3] were 0.25 µg/mL (≈ 0.623 µM), less than 1.01 µg/mL and 0.25 µg/mL (≈ 0.623 µM), respectively.
As to `NC(=O)c1c(F)ccc(OCCOCCOc2ccc(S(F)(F)(F)(F)F)cc2)c1F` [Compound 161, 2,6-difluoro-3-(2-{2-[4-(pentafluoro-lambda~6~-sulfanyl)phenoxy]ethoxy}ethoxy)benzamide], the values for the MIC in experiment [1], in experiment [2] and in experiment [3] were 2 µg/mL (≈ 4.32 µM), less than 1.01 µg/mL and 1 µg/mL (≈ 2.16 µM), respectively.
With `Cc1sc(COc2ccc(F)c(C(N)=O)c2F)nc1-c1ccc(Cl)cc1` [Compound 189, 3-{[4-(4-chlorophenyl)-5-methyl-1,3-thiazol-2-yl]methoxy}-2,6-difluorobenzamide], the MIC is 1 µg/mL (≈ 2.53 µM) in experiment [1], less than 1.01 µg/mL in experiment [2] and 1 µg/mL (≈ 2.53 µM) in experiment [3].
As for `NC(=O)c1c(F)ccc(OCc2ccnc(-c3ccc(Cl)cc3)n2)c1F` [Compound 192, 3-{[2-(4-chlorophenyl)pyrimidin-4-yl]methoxy}-2,6-difluorobenzamide], the MIC in experiment [1] was 1 µg/mL (≈ 2.66 µM); in experiment [2], less than 1.01 µg/mL; in experiment [3] it was 1 µg/mL (≈ 2.66 µM).
`NC(=O)c1c(F)ccc(OCc2cccc(-c3ccc(Cl)cc3)n2)c1F` [Compound 194, 3-{[6-(4-chlorophenyl)pyridin-2-yl]methoxy}-2,6-difluorobenzamide]: the MIC was 0.5 µg/mL (≈ 1.33 µM) in experiment [1], less than 1.01 µg/mL in experiment [2] and 0.5 µg/mL (≈ 1.33 µM) in experiment [3].
Turning to `NC(=O)c1c(F)ccc(OCc2nc(C#Cc3cccc(Cl)c3)cs2)c1F` [Compound 198, 3-({4-[(3-chlorophenyl)ethynyl]-1,3-thiazol-2-yl}methoxy)-2,6-difluorobenzamide], the MIC is 0.12 µg/mL (≈ 0.296 µM) in experiment [1], less than 1.01 µg/mL in experiment [2] and 0.25 µg/mL (≈ 0.618 µM) in experiment [3].
In the case of `NC(=O)c1c(F)ccc(OCc2nc(-c3ccc(Cl)s3)cs2)c1F` [Compound 203, 3-{[4-(5-chlorothiophen-2-yl)-1,3-thiazol-2-yl]methoxy}-2,6-difluorobenzamide], the MIC is 0.5 µg/mL (≈ 1.29 µM) in experiment [1], less than 1.01 µg/mL in experiment [2] and 1 µg/mL (≈ 2.59 µM) in experiment [3].
With `CNC(=N)c1cccc(OCc2nc(-c3ccc(Cl)cc3)ns2)c1F` [Compound 205, 3-{[3-(4-chlorophenyl)-1,2,4-thiadiazol-5-yl]methoxy}-2-fluoro-N-methylbenzenecarboximidamide], the MIC in experiment [1] was 16 µg/mL (≈ 42.5 µM); in experiment [2], 4 to 16 µg/mL (≈ 10.6 to 42.5 µM); in experiment [3], 16 µg/mL (≈ 42.5 µM).
For `COc1ncc(-c2csc(COc3ccc(F)c(C(N)=O)c3F)n2)s1` [Compound 207, 2,6-difluoro-3-[(2′-methoxy-4,5′-bi-1,3-thiazol-2-yl)methoxy]benzamide], the MIC in experiment [1] was 4 µg/mL (≈ 10.4 µM); in experiment [2], 1 to 4 µg/mL (≈ 2.61 to 10.4 µM); in experiment [3] it was 4 µg/mL (≈ 10.4 µM).
Regarding `NC(=O)c1c(F)ccc(OCc2nc(-c3ccc(C(F)(F)F)cc3)c(Br)o2)c1F` [Compound 208, 3-({5-bromo-4-[4-(trifluoromethyl)phenyl]-1,3-oxazol-2-yl}methoxy)-2,6-difluorobenzamide], the figures for the MIC in experiment [1], in experiment [2] and in experiment [3] were 0.06 µg/mL (≈ 0.126 µM), less than 1.01 µg/mL and 0.06 µg/mL (≈ 0.126 µM), respectively.
In the case of `NC(=O)c1c(F)ccc(OCc2nc(-c3ccc(OC(F)(F)F)cc3)c(Br)o2)c1F` [Compound 209, 3-({5-bromo-4-[4-(trifluoromethoxy)phenyl]-1,3-oxazol-2-yl}methoxy)-2,6-difluorobenzamide], the results for the MIC in experiment [1], in experiment [2] and in experiment [3] were 0.12 µg/mL (≈ 0.243 µM), less than 1.01 µg/mL and 0.25 µg/mL (≈ 0.507 µM), respectively.
With `NC(=O)c1c(F)ccc(OCc2nc(-c3ccc(OC(F)(F)F)cc3)c(C(F)(F)F)o2)c1F` [Compound 213, 2,6-difluoro-3-({4-[4-(trifluoromethoxy)phenyl]-5-(trifluoromethyl)-1,3-oxazol-2-yl}methoxy)benzamide], the MIC in experiment [1] was 0.12 µg/mL (≈ 0.249 µM); in experiment [2], less than 1.01 µg/mL; in experiment [3] it was 0.25 µg/mL (≈ 0.518 µM).
